Source: patent publication US20220370385A1, “COMPOSITIONS FOR USE IN INHIBITING SRC KINASE AND TREATING AND PREVENTING ASSOCIATED DISORDERS” (Enzene Biosciences Ltd., priority 2019, published 2022)
Entries after “also recorded” stand apart in the source; their conditions may differ.

How the values were obtained:
MDA-MB-468 cells = assay: MDA-MB-468 cell viability, CellTiter-Glo, 8 hrs, comparison with lapatinib; format: cell-based, human; conditions: MDA-MB-468, within 8 hrs of incubation
Method: MDA-MB-468 cells (ATCC #HTB-32) were seeded with a density of 5,000 cells per well in a 96 well white plate (Costar Cat #3917) in DMEM media supplemented with 10% FBS (assay medium). The plates were incubated at 37° C., 5% CO2 for 24 hr. E05 and Lapatinib was diluted in the assay medium and added to the respective wells of the assay plates. The plates were further incubated at 37° C., 5% CO2 for 8 hrs. After the incubation, the cell viability was assessed using CellTiter-Glo® and the plates were read for luminescence using Cytation 5 (Biotek). The relative luminescence unit (RLU) obtained was plotted against the concentration and EC50 values were estimated using Graphpad Prism 5 software.

MDA-MB-468 = assay: Murine xenograft model of Triple-Negative Breast Cancer; format: in vivo, SCID mice; conditions: oral, twice daily
Method: Efficacy study of E05 and positive control (5-Fluorouracil) were carried out in a murine xenograft model of Triple-Negative Breast Cancer (MDA-MB-468). Dosing was done as per the Table. 3.
Female SCID (Severe Combined Immunodeficient) mice were used for this study.
Approximately 5×10^6 cells in 0.2 mL FBS free medium containing 50% of Matrigel was injected into sub-cutaneous tissue on right flank of each mouse. Treatment with E05 or with positive control was initiated when average tumor volume reaches ˜100 mm3. Tumor volume was measured periodically.

[1] = Repeated dose 7-day dose range finding study, intravenous bolus injection; format: in vivo; conditions: for Morbidity % / Morbidity No / Mortality % / Mortality No: i.v. bolus 7 days
Method: Repeated dose 7-day dose range finding study (DRF) of E05 through intravenous bolus injection was carried out in Wistar rats.

[2] = Maximum tolerated dose study, oral gavage; format: in vivo; conditions: single oral gavage
Method: A maximum tolerated dose (MTD) study was carried out with E05. In MTD study, group of 3 male and 3 female rats were dosed at 175 (group 1), 550 (group 2), 1750 (group 3) and 2000 (group 4) mg/kg b. wt.

[3] = Pharmacokinetic study after single oral administration; format: in vivo; conditions: Sprague Dawley, rat, plasma, male rats
Method: A study to determine the pharmacokinetics of E05 after single oral (10 mg/kg) administration in male Sprague Dawley rats was carried out. […] The absolute oral bioavailability of Small molecule was 80% (FIG. 18).

[4] = test system: colon cancer cell line HCT116; assay: Anti-proliferative activity in HCT116; format: cell-based

O=C(O)CCc1ccc(O)c(O)c1 [E05, 3-(3,4-Dihydroxyphenyl) propanoic acid]
inhibition compared with lapatinib (MDA-MB-468 cells): stronger inhibition in compare to lapatinib
efficacy in the murine xenograft model of TNBC (MDA-MB-468; 6 weeks): statistically significant efficacy
tumor volumes (MDA-MB-468; 6 weeks, 75, 200, 500 mg/kg): Dose dependent decrease in tumor volumes
Morbidity % ([1]; Female G2 125 mg/kg b. wt): 0%
Morbidity No ([1]; Female G2 125 mg/kg b. wt): 0
Mortality % ([1]; Female G2 125 mg/kg b. wt): 0%
Mortality No ([1]; Female G2 125 mg/kg b. wt): 0
Morbidity % ([1]; Female G3 250 mg/kg b. wt): 0%
Morbidity No ([1]; Female G3 250 mg/kg b. wt): 0
Mortality % ([1]; Female G3 250 mg/kg b. wt): 0%
Mortality No ([1]; Female G3 250 mg/kg b. wt): 0
Morbidity % ([1]; Female G4 500 mg/kg b. wt): 0%
Morbidity No ([1]; Female G4 500 mg/kg b. wt): 0
Mortality % ([1]; Female G4 500 mg/kg b. wt): 0%
Mortality No ([1]; Female G4 500 mg/kg b. wt): 0
Morbidity % ([1]; Male G2 125 mg/kg b. wt): 0%
Morbidity No ([1]; Male G2 125 mg/kg b. wt): 0
Mortality % ([1]; Male G2 125 mg/kg b. wt): 0%
Mortality No ([1]; Male G2 125 mg/kg b. wt): 0
Morbidity % ([1]; Male G3 250 mg/kg b. wt): 0%
Morbidity No ([1]; Male G3 250 mg/kg b. wt): 0
Mortality % ([1]; Male G3 250 mg/kg b. wt): 0%
Mortality No ([1]; Male G3 250 mg/kg b. wt): 0
Morbidity % ([1]; Male G4 500 mg/kg b. wt): 0%
Morbidity No ([1]; Male G4 500 mg/kg b. wt): 0
Mortality % ([1]; Male G4 500 mg/kg b. wt): 0%
Mortality No ([1]; Male G4 500 mg/kg b. wt): 0
systemic toxicity ([1]; up to 500 mg/kg b. wt., daily intravenous bolus, 7 consecutive days): did not produce any systemic toxicity
Morbidity on Experimental Day 1 ([2]; Female G1 175 mg/kg b. wt.): 0
Morbidity on Experimental Day 2 ([2]; Female G1 175 mg/kg b. wt.): 0
Morbidity on Experimental Day 3 ([2]; Female G1 175 mg/kg b. wt.): 0
Morbidity on Experimental Day 4 ([2]; Female G1 175 mg/kg b. wt.): 0
Mortality on Experimental Day 1 ([2]; Female G1 175 mg/kg b. wt.): 0
Mortality on Experimental Day 2 ([2]; Female G1 175 mg/kg b. wt.): 0
Mortality on Experimental Day 3 ([2]; Female G1 175 mg/kg b. wt.): 0
Mortality on Experimental Day 4 ([2]; Female G1 175 mg/kg b. wt.): 0
Morbidity on Experimental Day 1 ([2]; Female G2 550 mg/kg b. wt.): 0
Morbidity on Experimental Day 2 ([2]; Female G2 550 mg/kg b. wt.): 0
Morbidity on Experimental Day 3 ([2]; Female G2 550 mg/kg b. wt.): 0
Morbidity on Experimental Day 4 ([2]; Female G2 550 mg/kg b. wt.): 0
Mortality on Experimental Day 1 ([2]; Female G2 550 mg/kg b. wt.): 0
Mortality on Experimental Day 2 ([2]; Female G2 550 mg/kg b. wt.): 0
Mortality on Experimental Day 3 ([2]; Female G2 550 mg/kg b. wt.): 0
Mortality on Experimental Day 4 ([2]; Female G2 550 mg/kg b. wt.): 0
Morbidity on Experimental Day 1 ([2]; Female G3 1750 mg/kg b. wt.): 0
Morbidity on Experimental Day 2 ([2]; Female G3 1750 mg/kg b. wt.): 0
Morbidity on Experimental Day 3 ([2]; Female G3 1750 mg/kg b. wt.): 0
Morbidity on Experimental Day 4 ([2]; Female G3 1750 mg/kg b. wt.): 0
Mortality on Experimental Day 1 ([2]; Female G3 1750 mg/kg b. wt.): 0
Mortality on Experimental Day 2 ([2]; Female G3 1750 mg/kg b. wt.): 0
Mortality on Experimental Day 3 ([2]; Female G3 1750 mg/kg b. wt.): 0
Mortality on Experimental Day 4 ([2]; Female G3 1750 mg/kg b. wt.): 0
Morbidity on Experimental Day 1 ([2]; Female G4 2000 mg/kg b. wt.): 0
Morbidity on Experimental Day 2 ([2]; Female G4 2000 mg/kg b. wt.): 0
Morbidity on Experimental Day 3 ([2]; Female G4 2000 mg/kg b. wt.): 0
Morbidity on Experimental Day 4 ([2]; Female G4 2000 mg/kg b. wt.): 0
Mortality on Experimental Day 1 ([2]; Female G4 2000 mg/kg b. wt.): 0
Mortality on Experimental Day 2 ([2]; Female G4 2000 mg/kg b. wt.): 0
Mortality on Experimental Day 3 ([2]; Female G4 2000 mg/kg b. wt.): 0
Mortality on Experimental Day 4 ([2]; Female G4 2000 mg/kg b. wt.): 0
Morbidity on Experimental Day 1 ([2]; Male G1 175 mg/kg b. wt.): 0
Morbidity on Experimental Day 2 ([2]; Male G1 175 mg/kg b. wt.): 0
Morbidity on Experimental Day 3 ([2]; Male G1 175 mg/kg b. wt.): 0
Morbidity on Experimental Day 4 ([2]; Male G1 175 mg/kg b. wt.): 0
Mortality on Experimental Day 1 ([2]; Male G1 175 mg/kg b. wt.): 0
Mortality on Experimental Day 2 ([2]; Male G1 175 mg/kg b. wt.): 0
Mortality on Experimental Day 3 ([2]; Male G1 175 mg/kg b. wt.): 0
Mortality on Experimental Day 4 ([2]; Male G1 175 mg/kg b. wt.): 0
Morbidity on Experimental Day 1 ([2]; Male G2 550 mg/kg b. wt.): 0
Morbidity on Experimental Day 2 ([2]; Male G2 550 mg/kg b. wt.): 0
Morbidity on Experimental Day 3 ([2]; Male G2 550 mg/kg b. wt.): 0
Morbidity on Experimental Day 4 ([2]; Male G2 550 mg/kg b. wt.): 0
Mortality on Experimental Day 1 ([2]; Male G2 550 mg/kg b. wt.): 0
Mortality on Experimental Day 2 ([2]; Male G2 550 mg/kg b. wt.): 0
Mortality on Experimental Day 3 ([2]; Male G2 550 mg/kg b. wt.): 0
Mortality on Experimental Day 4 ([2]; Male G2 550 mg/kg b. wt.): 0
Morbidity on Experimental Day 1 ([2]; Male G3 1750 mg/kg b. wt.): 0
Morbidity on Experimental Day 2 ([2]; Male G3 1750 mg/kg b. wt.): 0
Morbidity on Experimental Day 3 ([2]; Male G3 1750 mg/kg b. wt.): 0
Morbidity on Experimental Day 4 ([2]; Male G3 1750 mg/kg b. wt.): 0
Mortality on Experimental Day 1 ([2]; Male G3 1750 mg/kg b. wt.): 0
Mortality on Experimental Day 2 ([2]; Male G3 1750 mg/kg b. wt.): 0
Mortality on Experimental Day 3 ([2]; Male G3 1750 mg/kg b. wt.): 0
Mortality on Experimental Day 4 ([2]; Male G3 1750 mg/kg b. wt.): 0
Morbidity on Experimental Day 1 ([2]; Male G4 2000 mg/kg b. wt.): 0
Morbidity on Experimental Day 2 ([2]; Male G4 2000 mg/kg b. wt.): 0
Morbidity on Experimental Day 3 ([2]; Male G4 2000 mg/kg b. wt.): 0
Morbidity on Experimental Day 4 ([2]; Male G4 2000 mg/kg b. wt.): 0
Mortality on Experimental Day 1 ([2]; Male G4 2000 mg/kg b. wt.): 0
Mortality on Experimental Day 2 ([2]; Male G4 2000 mg/kg b. wt.): 0
Mortality on Experimental Day 3 ([2]; Male G4 2000 mg/kg b. wt.): 0
Mortality on Experimental Day 4 ([2]; Male G4 2000 mg/kg b. wt.): 0
bioavailability ([3]; oral 10 mg/kg, read-out: absolute oral bioavailability): 80%
AUC(0-t) ([3]; single oral gavage 10 mg/kg): 151 ng·h/mL
Cmax ([3]; single oral gavage 10 mg/kg): 306 ng/mL
Tmax ([3]; single oral gavage 10 mg/kg, read-out: mean time to reach peak plasma concentration (Tmax)): 15 min
inhibition of growth [4]: dose dependent response; also recorded: dose dependent inhibition of growth
